The source made the active and inactive calls.
Assays:
[1] = cells; format: functional
[2] = molecular target: G-protein coupled receptor 35 (Homo sapiens, UniProt Q9HC97); test: inhibition of zaprinast-stimulated GPR35 beta-arrestin translocation – imaging, U2OS, beta-arrestin-GFP, zaprinast agonist, primary screen (AID 2058); format: functional;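 further: antagonist potency meaning inhibition of agonist-induced arrestin redistribution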
[3] = THP-1 cell cytotoxicity, dose response, cytotoxicity control for non-replicating M. tuberculosis project (AID 489025); format: functional
[4] = molecular target: T1, Mitochondrial peptide methionine sulfoxide reductase (Bos taurus, UniProt P54149); test: Absorbance-based biochemical high throughput dose response assay for activators of Methionine sulfoxide reductase A (MsrA).; format: functional
T1 sequence (P54149 whole entry): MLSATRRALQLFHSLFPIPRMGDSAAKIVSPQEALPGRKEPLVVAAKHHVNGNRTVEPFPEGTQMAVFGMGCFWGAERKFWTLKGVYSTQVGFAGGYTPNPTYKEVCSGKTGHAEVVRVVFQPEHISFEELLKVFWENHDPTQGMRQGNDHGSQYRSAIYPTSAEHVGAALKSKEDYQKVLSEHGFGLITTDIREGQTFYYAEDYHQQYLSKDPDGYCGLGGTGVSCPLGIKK

[5] = molecular target: Cytochrome P450 2D6 (Homo sapiens, UniProt P10635);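 further: CYP2D6 member of a cytochrome P450 panel assay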
Chain of Cytochrome P450 2D6 (P10635 whole entry): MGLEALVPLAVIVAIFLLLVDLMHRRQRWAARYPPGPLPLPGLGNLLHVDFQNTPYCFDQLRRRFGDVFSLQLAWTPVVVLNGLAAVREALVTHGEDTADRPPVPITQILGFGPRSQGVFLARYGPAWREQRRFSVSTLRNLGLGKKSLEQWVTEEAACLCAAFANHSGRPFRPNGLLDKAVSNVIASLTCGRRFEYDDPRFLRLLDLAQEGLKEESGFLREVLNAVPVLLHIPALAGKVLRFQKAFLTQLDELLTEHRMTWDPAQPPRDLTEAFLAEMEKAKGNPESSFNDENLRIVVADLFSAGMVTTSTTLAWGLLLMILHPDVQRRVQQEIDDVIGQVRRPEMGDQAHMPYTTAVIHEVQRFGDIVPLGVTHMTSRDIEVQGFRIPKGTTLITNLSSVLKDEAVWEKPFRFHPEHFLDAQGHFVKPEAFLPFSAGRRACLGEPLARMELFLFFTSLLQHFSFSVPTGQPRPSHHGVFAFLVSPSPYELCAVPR

[6] = Counterscreen for AddAB inhibitors: absorbance-based bacterial cell-based high throughput dose response assay for inhibitors of bacterial viability. [Related pubchem assays (depositor defined):AID435030, AID449728, AID449731, AID488942, AID488955, AID488956]; format: functional
[7] = molecular target: Exodeoxyribonuclease V (Escherichia coli (strain K12), UniProt P04993+P07648+P08394); test: RecBCD inhibition via phage-restricted bacterial growth – absorbance, V66 E. coli, mutant T4 phage, counter-screen for AddAB inhibitor project, dose response (AID 492957); format: functional, cell-based, Escherichia coli str. K-12 substr. MG1655
Chain of Exodeoxyribonuclease V (P04993 whole entry): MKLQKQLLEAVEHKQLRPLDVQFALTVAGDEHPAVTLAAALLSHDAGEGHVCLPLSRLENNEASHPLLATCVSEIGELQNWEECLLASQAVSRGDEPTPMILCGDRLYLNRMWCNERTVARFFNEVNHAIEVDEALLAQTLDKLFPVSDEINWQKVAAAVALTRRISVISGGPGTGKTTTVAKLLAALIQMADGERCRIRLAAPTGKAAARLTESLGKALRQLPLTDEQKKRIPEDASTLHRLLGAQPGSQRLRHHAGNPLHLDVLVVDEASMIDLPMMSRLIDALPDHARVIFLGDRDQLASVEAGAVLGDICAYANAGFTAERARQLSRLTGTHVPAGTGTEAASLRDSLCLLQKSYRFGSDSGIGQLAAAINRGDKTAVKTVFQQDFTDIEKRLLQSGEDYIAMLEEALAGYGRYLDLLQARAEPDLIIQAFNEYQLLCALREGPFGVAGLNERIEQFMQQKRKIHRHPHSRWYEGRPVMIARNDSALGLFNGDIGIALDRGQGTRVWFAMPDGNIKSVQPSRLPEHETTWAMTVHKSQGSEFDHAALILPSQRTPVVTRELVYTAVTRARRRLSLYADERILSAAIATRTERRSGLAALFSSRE
Chain of Exodeoxyribonuclease V (P07648 whole entry): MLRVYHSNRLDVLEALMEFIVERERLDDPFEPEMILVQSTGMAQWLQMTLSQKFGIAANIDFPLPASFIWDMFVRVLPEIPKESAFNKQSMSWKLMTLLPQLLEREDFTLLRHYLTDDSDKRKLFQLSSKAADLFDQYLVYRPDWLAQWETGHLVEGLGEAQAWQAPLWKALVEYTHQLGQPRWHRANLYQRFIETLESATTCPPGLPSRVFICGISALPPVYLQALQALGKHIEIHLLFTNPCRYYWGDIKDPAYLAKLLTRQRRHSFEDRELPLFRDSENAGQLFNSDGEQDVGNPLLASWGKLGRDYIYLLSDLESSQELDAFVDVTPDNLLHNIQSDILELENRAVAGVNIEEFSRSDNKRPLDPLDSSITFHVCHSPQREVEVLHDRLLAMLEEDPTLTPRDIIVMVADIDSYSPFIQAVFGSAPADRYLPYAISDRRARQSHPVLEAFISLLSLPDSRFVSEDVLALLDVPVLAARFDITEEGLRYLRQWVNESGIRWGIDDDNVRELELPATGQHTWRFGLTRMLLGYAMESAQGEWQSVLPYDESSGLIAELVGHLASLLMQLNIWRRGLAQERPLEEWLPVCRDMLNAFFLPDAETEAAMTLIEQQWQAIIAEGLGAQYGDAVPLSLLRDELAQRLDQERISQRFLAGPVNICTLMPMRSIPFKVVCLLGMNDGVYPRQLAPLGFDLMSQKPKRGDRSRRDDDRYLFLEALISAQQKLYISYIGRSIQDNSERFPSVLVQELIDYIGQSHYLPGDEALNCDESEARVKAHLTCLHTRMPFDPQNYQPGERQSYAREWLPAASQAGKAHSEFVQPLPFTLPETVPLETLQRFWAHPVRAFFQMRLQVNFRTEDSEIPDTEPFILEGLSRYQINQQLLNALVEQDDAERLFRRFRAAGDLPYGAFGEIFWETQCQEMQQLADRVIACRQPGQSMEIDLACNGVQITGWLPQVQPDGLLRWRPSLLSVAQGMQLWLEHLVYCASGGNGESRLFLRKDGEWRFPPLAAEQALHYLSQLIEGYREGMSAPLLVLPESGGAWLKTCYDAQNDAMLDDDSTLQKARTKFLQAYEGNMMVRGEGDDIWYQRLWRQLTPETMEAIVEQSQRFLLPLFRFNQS
Chain of Exodeoxyribonuclease V (P08394 whole entry): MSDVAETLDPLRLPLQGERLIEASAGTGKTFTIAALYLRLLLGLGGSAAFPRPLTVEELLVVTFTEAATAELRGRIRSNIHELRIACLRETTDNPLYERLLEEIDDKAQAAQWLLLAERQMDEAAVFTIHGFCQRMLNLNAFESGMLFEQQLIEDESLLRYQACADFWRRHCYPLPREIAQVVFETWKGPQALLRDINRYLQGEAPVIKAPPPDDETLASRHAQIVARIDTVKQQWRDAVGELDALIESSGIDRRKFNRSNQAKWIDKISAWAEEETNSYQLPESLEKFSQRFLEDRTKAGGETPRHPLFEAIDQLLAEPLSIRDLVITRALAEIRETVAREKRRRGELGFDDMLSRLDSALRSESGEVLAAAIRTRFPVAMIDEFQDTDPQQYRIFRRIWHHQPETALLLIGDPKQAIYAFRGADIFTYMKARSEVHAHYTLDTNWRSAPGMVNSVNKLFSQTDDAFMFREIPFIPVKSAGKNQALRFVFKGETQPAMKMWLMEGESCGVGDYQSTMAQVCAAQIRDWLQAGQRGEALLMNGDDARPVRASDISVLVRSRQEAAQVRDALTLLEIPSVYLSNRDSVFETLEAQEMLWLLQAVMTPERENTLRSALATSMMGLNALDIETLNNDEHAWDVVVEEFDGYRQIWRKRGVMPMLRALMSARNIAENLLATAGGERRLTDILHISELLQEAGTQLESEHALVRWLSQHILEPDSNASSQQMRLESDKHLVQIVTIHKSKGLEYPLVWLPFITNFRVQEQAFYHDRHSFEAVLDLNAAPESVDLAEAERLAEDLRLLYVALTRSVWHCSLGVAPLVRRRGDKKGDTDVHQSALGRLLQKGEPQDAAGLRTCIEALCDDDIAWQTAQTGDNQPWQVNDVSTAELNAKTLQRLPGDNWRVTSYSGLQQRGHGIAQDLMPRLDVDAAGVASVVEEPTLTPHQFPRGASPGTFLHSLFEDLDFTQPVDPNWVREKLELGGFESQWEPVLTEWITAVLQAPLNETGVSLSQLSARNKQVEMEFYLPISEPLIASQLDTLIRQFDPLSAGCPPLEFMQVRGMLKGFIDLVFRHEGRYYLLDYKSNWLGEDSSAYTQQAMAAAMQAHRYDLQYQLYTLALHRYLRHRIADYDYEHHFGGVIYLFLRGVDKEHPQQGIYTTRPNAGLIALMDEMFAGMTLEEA

[8] = decrease of insulin promoter-GFP reporter – imaging, high-content screening, mouse beta cells (AID 1628); format: functional; conditions: MIN6
[9] = MIN6 cell viability loss – mouse insulinoma, cytotoxicity control, dose response (AID 2122); format: functional;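 further: confirmatory high-throughput counterscreen run to flag cytotoxic compounds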
[10] = molecular target: T2, Neuropeptides B/W receptor type 1 (Homo sapiens, UniProt P48145); test: human NPBW1 receptor blockade, IC50 – cell-based, fluorescence, dose response, late-stage follow-up (AID 463251); format: functional
T2 sequence (P48145 whole entry): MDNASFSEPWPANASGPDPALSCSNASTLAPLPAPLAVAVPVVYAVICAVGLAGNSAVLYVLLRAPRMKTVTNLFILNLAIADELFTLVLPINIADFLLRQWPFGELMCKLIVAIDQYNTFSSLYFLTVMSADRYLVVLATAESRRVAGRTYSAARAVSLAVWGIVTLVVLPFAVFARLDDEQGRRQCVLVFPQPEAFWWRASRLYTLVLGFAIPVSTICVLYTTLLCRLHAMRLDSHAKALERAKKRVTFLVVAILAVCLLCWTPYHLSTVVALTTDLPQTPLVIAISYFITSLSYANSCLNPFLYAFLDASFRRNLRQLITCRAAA

[11] = molecular target: Melanin-concentrating hormone receptor 1 (Homo sapiens, UniProt Q99705); test: Late-stage fluorescence-based counterscreen for antagonists of the G-protein coupled receptor 7 (GPR7): cell-based dose response assay to identify antagonists of the melanin-concentrating hormone receptor 1 (MCHR1). [Related pubchem assays (depositor defined):AID1861, AID1880, AID1952, AID2148, AID2251, AID2257, AID485339]; format: functional;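 further: stimulated with 30 nM MCH peptide agonist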
Chain of Melanin-concentrating hormone receptor 1 (Q99705 whole entry): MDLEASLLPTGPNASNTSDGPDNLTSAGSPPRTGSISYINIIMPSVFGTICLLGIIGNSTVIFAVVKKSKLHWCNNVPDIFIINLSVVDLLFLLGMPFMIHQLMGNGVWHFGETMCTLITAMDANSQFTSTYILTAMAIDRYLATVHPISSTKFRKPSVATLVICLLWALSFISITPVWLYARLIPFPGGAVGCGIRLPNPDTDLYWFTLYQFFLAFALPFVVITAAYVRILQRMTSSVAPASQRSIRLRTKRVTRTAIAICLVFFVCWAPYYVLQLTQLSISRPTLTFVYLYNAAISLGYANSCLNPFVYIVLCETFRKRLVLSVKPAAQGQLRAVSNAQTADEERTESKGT

[12] = HEK-293T cell viability reduction – luminescence, B-cell screen hits, cytotoxicity control for BCR NF-kB inhibitor project, dose response (AID 489021); format: functional, cell-based;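 further: HEK-293T cells carrying an NF-kB luciferase reporter; cells exposed to compound for about 14 hours before viability readout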
[13] = molecular target: Aspartyl aminopeptidase (Plasmodium falciparum 3D7, UniProt Q8I2J3)
Chain of Aspartyl aminopeptidase (Q8I2J3 whole entry): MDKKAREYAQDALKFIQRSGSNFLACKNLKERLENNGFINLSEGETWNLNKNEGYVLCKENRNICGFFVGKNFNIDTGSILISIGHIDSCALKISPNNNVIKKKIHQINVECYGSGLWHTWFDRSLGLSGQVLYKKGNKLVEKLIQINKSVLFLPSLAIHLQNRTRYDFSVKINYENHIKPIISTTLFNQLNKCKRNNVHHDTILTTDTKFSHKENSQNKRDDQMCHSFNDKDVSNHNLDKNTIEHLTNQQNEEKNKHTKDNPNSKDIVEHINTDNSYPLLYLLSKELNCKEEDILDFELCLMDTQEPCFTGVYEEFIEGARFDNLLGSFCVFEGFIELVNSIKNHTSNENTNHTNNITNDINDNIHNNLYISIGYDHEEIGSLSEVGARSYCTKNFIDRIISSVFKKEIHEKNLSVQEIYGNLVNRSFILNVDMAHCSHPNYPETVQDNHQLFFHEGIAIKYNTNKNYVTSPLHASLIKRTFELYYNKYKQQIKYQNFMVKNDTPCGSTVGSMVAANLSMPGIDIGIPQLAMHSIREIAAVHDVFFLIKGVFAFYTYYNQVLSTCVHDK

[14] = molecular target: Procathepsin L (Homo sapiens, UniProt P07711)
Chain of Procathepsin L (P07711 whole entry): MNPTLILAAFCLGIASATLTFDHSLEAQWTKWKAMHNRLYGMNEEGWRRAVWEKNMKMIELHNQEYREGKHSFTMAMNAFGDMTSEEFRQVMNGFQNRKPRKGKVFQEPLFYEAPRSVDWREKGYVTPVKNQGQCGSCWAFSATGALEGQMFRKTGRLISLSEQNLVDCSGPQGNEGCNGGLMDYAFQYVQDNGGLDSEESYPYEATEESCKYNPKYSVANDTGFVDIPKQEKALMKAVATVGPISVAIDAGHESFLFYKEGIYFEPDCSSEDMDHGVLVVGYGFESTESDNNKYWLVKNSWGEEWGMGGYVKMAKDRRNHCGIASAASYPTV

Chain of G-protein coupled receptor 35 (Q9HC97 whole entry): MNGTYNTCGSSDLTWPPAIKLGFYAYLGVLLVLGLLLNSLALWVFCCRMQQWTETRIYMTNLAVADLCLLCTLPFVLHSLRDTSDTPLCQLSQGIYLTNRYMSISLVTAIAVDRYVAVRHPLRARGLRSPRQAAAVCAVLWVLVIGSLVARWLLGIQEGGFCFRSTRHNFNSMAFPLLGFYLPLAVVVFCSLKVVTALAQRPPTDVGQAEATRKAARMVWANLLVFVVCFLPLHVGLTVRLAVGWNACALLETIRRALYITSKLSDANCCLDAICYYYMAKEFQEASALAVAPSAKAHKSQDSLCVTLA

## CCN(CC)c1ccc(-c2sc(Nc3ccccc3)n[n+]2-c2ccc(F)cc2)cc1
[1]
  IC50: 14 µM (active)
[2]
  IC50: 0.626 µM (active)
[3]
  CC50: 26.4 µM (active)
[4]
  EC50: > 104 µM (inactive)

## CC(=O)N1c2ccc(S(=O)(=O)CCC(=O)O)cc2CC1C (stereo not drawn)
[5]
  AC50: inconclusive

## COc1ccc(Nc2nnc(SCc3cn4c(C)cccc4n3)s2)cc1
[6]
  IC50: > 119 µM (inactive)
[7]
  IC50: > 119 µM (inactive)

## CCn1cc(C(=O)NCCc2ccccc2)c(=O)c2cc(F)c(N3CCN(C)CC3)cc21
[6]
  IC50: 27.1 µM (inactive)
[7]
  IC50: > 118 µM (inactive)

## CCn1nc(C)c(CN2CCc3c([nH]c4ccccc34)C2c2ccc(F)c(OC)c2)c1C (stereo not drawn)
[8]
  IC50: 2.29 µM (active)
[9]
  IC50: 13.6 µM (inactive)

## COc1ccc(Oc2c(N3CCCCC3)cnn(-c3ccc(C(C)C)cc3)c2=O)cc1
[10]
  IC50: > 20 µM (inactive)
[11]
  IC50: 5.7 µM (active)

## COc1ccc(-c2ccoc2)cc1[C@H]1[C@H]2C=CC[C@@H](C)[C@@H]2C(=O)N1Cc1ccccc1
[12]
  IC50: > 80 µM (inactive)

## COc1ccc(Oc2c(-c3ccccc3)cnn(-c3ccc(C)cc3)c2=O)cc1
[10]
  IC50: > 20 µM (inactive)
[11]
  IC50: 20 µM (inactive)

## c1ccc(NCn2cncn2)nc1
[13]
  IC50: 2.56 µM (active)
[14]
  IC50: > 59.6 µM (not active)

Reference: ChEMBL document CHEMBL1201862, “PubChem BioAssay data set” (2004)
